Source: US10252258B2, “Method for separating and concentrating target substance using novel cationic graft polymer” (priority 2014, dated 2019)

System: Escherichia coli
Assay: Survival (viability) of bacteria collected using surfactant-containing solution
Type: cell-based
Settings: 1% surfactant solution, 20° C.; then capture with 10% cationic graft polymer; one hundredth of suspension cultured 37° C. 18 hours; Control 1 >5000
Description: Escherichia coli precipitated on a separating agent in a blood collection tube is collected while being alive using a non-ionic surfactant-containing solution.
The produced Escherichia coli was added to a physiological saline solution in an amount of 2×10^8 cell/mL, and the resulting mixture was used as a sample.
To a blood collection tube, 3 mL of a bacterial solution in which Escherichia coli was dispersed in a physiological saline solution was added, and was centrifuged at 3000 rpm for five minutes. Thereafter, the supernatant was removed. Subsequently, 0.5 mL of a 1% surfactant solution was added to the blood collection tube, and a bacterial cell precipitated on a surface of a separating agent was dispersed.
The bacterial cell suspension was allowed to stand at 20° C. for 30 minutes and three hours. Thereafter, 100 μL of a 10% cationic graft polymer and 100 μL of a reaction solution were mixed and allowed to react for one minute. Thereafter, the resulting product was centrifuged for 30 seconds by a tabletop small centrifugal machine to obtain a precipitation pellet. The supernatant was removed, and the resulting precipitation pellet was completely dispersed with 500 μL of a dispersion solution to obtain a suspension. One hundredth of the suspension was cultured at 37° C. for 18 hours using a LB bacteria culture agar medium, and the number of living bacteria was confirmed by the number of colonies.
As a control, a physiological saline solution was used in place of the surfactant solution (Control 1).

| Compound | the number of colonies, allowed to stand for 30 minutes | the number of colonies, allowed to stand for 3 hours |
| --- | --- | --- |
| C[C@H](CCC(=O)NCCC[N+](C)(C)CCCS(=O)(=O)[O-])[C@H]1CC[C@H]2[C@@H]3[C@H](O)C[C@@H]4C[C@H](O)CC[C@]4(C)[C@H]3C[C@H](O)[C@]12C [CHAPS] | 84 | 61 |
| sucrose laurate | 4000 | 3200 |
